Test results from US8431540B2, “Modified lysine-mimetic compounds” (Zealand Pharma A/S, priority 2005, dated 2013).

Key:
Male CD-1 mice = assay: Calcium-induced arrhythmia model (time to AV block after CaCl2 infusion); type: in vivo; conditions: compound IV 3 min before CaCl2 infusion (100 mg/kg/min), saline control 62-78
Experimental: Peptides suitable for administration to cardiac cells can be identified in an in vivo model of calcium-induced arrhythmias according to the model of Lynch et al. (1981) J Cardiovasc. Pharmacol. 3: 49-60. Male CD-1 mice are anaesthetized with Ketamine (75 mg/kg) and medetomidine (1 mg/kg) IP. An i.v. cannula is inserted into the tail vein. A lead II ECG signal is recorded continuously by positioning stainless steel ECG electrodes on the right forelimb and […]. The ground electrode is placed on the right hind limb. The signal is amplified and filtered using Gould physiograph components and po-ne-mah data acquisition software. After a 90 sec equilibration period test compound is injected into the tail vein (over 30 seconds). Mice pre-treated with vehicle are tested as control animals. The injection volume is 100 μl/30 g mice in all experiments. Infusion of CaCl2 (30 mg/mL, 0.1 mL/min/30 g mice, 100 mg/kg/min) is started 3 min after IV administration of drug or vehicle (0.9% saline). The time lag to onset of cardiac conduction block is determined as the time from the start of CaCl2 infusion until the first arrhythmic event occurred. The first conduction block is defined as the first RR-interval, larger than or equal to 3 times one RR-interval from the pre-treatment period. The first arrhythmic event occurring is either a second degree AV-block (intermittent failure of the AV conduction characterized by a P-wave without the concomitant QRS complex) or a second degree SA block (prolonged RR-interval and a QRS-complex without a preceding P-wave). Responses are expressed relative to the time until 2nd degree AV-block occurred in vehicle treated mice.
The anti-arrhythmic effect of compounds according to the present teachings was tested in a model of calcium-induced arrhythmias according to the model of Lynch et al., J. Cardiovasc. Pharmacol. (1981), 3: 49-60. Male CD-1 mice were anaesthetized with Ketamine (75 mg/kg) and medetomidine (1 mg/kg) IP. An i.v. cannula was inserted into the tail vein. A lead II ECG signal was recorded continuously by positioning stainless steel ECG electrodes on the right forelimb and […]. The ground electrode was placed on the right hind limb. The signal was amplified and filtered using Gould physiograph components and po-ne-mah data acquisition software. After a 90 sec equilibration period test compound was injected into the tail vein (over 30 seconds). Mice pre-treated with vehicle (0.9% saline) were tested as control animals. The injection volume was 100 μl/30 g mice in all experiments. Infusion of CaCl2 (30 mg/mL, 0.1 mL/min/30 g mice, 100 mg/kg/min) was started 3 min after IV administration of drug or vehicle. The time lag to onset of cardiac conduction block was determined as the time from the start of CaCl2 infusion until the first arrhythmic event occurred. The first conduction block was defined as the first RR-interval, larger/or equal to, 3 times one RR-interval from the pre-treatment period. The first arrhythmic event occurring was either a second degree AV-block (intermittent failure of the AV conduction characterized by a P-wave without the concomitant QRS complex) or a second degree SA block (prolonged RR-interval and a QRS-complex without a preceding P-wave).
Mice pre-treated with vehicle (0.9% saline) were tested on all days as a measure for control level in untreated animal. Injection volume was 100 μL in all experiments. The time lag to onset of arrhythmias was determined as the time from the start of CaCl2 infusion until the first event of conduction block defined as intermittent failure of the SA or AV conduction characterized by delayed P-wave activation (SA block) or by a P-wave without the concomitant QRS complex (AV block). The time lag to onset of AV block is given below in Table 2.

Plasma stability assay = conditions: male rat plasma (1:1 plasma:pH 7.4 buffer), 1 μM, 37° C., 3 hours
Experimental: To predict its plasma stability, compounds of the present teachings were incubated in male rat plasma (1:1 plasma:pH 7.4 buffer) at 1 μM concentration at 37° C. After 3 hours, the reaction was quenched with cold acetonitrile. The solution was centrifuged and the supernatant was analyzed with LC-MS using the following HPLC conditions: Thermo Hypersil-Keystone Aquasil C18 column (50 mm×2.1 mm, 5 μM) at ambient temperature; Solvent A: 0.1% formic acid in water; Solvent B: 0.1% formic acid in acetonitrile; solvent gradient: 100% A to 50% A over 2.5 min, to 10% A over 1.5 min, and returning to 100% A and re-equilibrating for 1.5 min; flowrate: 0.8 mL/min. The percent of the compound remaining was calculated by dividing the 3-hour incubation sample LC-MS signal area counts by the time=0 area counts.

[1] = Metabolic stability assay (liver microsomes); conditions: male, rat
Experimental: To predict the stability of the compound under first pass (Phase I) metabolism, compounds of the present teachings were incubated with male rat liver microsomes at 1 μM concentration and 0.5 mg/mL protein concentration at 37° C. After 15 min, the reaction was quenched with cold acetonitrile. The solution was centrifuged and the supernatant was analyzed with LC-MS using the HPLC conditions described in section 3 above.

| Compound | Time to AV block (Male CD-1 mice) | % Remaining (Plasma stability assay) | half-life at 1 μM [1] | half-life in male rat liver microsomes |
| --- | --- | --- | --- | --- |
| NC(CCC(=O)O)C(=O)N1C[C@H](NC(=O)c2ccccc2)C[C@H]1C(=O)O (stereo partly drawn) [Compound 6, (2S,4R)1-(2-Amino-4-carboxy-butyryl)-4-benzoylamino-pyrrolidine-2-carboxylic acid] | 117.9 s |  |  |  |
| NCC(=O)Nc1cc(NC(=O)c2ccccc2)cc(C(=O)O)c1 [Compound 26, 3-(2-Amino-acetylamino)-5-benzoylamino-benzoic acid] | 122.8 s |  |  |  |
| O=C(N[C@@H]1C[C@@H](C(=O)O)N(C(=O)CO)C1)c1ccccc1 [Compound 52, (2S,4R) 4-Benzoylamino-1-(2-hydroxy-acetyl)-pyrrolidine-2-carboxylic acid] | 135.6 s |  |  |  |
| O=C(CO)Nc1cc(NC(=O)c2ccccc2)cc(C(=O)O)c1 [Compound 54, 3-Benzoylamino-5-(2-hydroxy-acetylamino)-benzoic acid] | 121.7 s |  |  |  |
| NC(=O)C1N(C(=O)CO)CCN1C(=O)c1ccccc1 (stereo not drawn) [Compound 56, 1-Benzoyl-3-(2-hydroxy-acetyl)-imidazolidine-2-carboxylic acid amide] | 128.1 s |  |  |  |
| NCC(=O)N1C[C@H](NC(=O)c2ccccc2)C[C@H]1C(N)=O [Compound 64, (2S,4R) 1-(2-aminoacetyl)-4-benzamidopyrrolidine-2-carboxamide] | 111.7 s | 27% | > 30 min |  |
| CNC(=O)[C@@H]1C[C@@H](NC(=O)c2ccccc2)CN1C(=O)CN [Compound 65, (2S,4R) 1-(2-aminoacetyl)-4-benzamido-N-methylpyrrolidine-2-carboxamide] | 115.2 s | 87% | > 30 min |  |
| CCNC(=O)[C@@H]1C[C@@H](NC(=O)c2ccccc2)CN1C(=O)CN [Compound 66, (2S,4R) 1-(2-aminoacetyl)-4-benzamido-N-ethylpyrrolidine-2-carboxamide] | 122.7 s | 100% | > 30 min |  |
| CC(C)NC(=O)[C@@H]1C[C@@H](NC(=O)c2ccccc2)CN1C(=O)CN [Compound 67, (2S,4R) 1-(2-aminoacetyl)-4-benzamido-N-isopropylpyrrolidine-2-carboxamide] | 134.4 s | 100% | > 30 min |  |
| NCC(=O)N1C[C@H](NC(=O)c2ccccc2)C[C@H]1C(=O)NC1CC1 [Compound 68, (2S,4R) 1-(2-aminoacetyl)-4-benzamido-N-cyclopropylpyrrolidine-2-carboxamide] | 143.8 s | 96% | > 30 min |  |
| CC(C)(C)OC(=O)NCC(=O)N1C[C@H](NC(=O)c2ccccc2)C[C@H]1C(N)=O [Compound 69, (2S,4R) 4-benzamido-1-(2-(tert-butoxycarbonylamino)acetyl) pyrrolidine-2-carboxamide] |  |  |  | greater than 30 minutes |
| CCC(CC)NC(=O)[C@@H]1C[C@@H](NC(=O)c2ccccc2)CN1C(=O)CN [Compound 70, (2S,4R) 1-(2-aminoacetyl)-4-benzamido-N-(pentan-3-yl)pyrrolidine-2-carboxamide] |  | 93% | > 30 min |  |
| NCC(=O)N1C[C@H](NC(=O)c2ccccc2)C[C@H]1C(=O)NC1CCCC1 [Compound 71, (2S,4R) 1-(2-aminoacetyl)-4-benzamido-N-cyclopentylpyrrolidine-2-carboxamide] |  | 90% | > 30 min |  |
| CC(C)CNC(=O)[C@@H]1C[C@@H](NC(=O)c2ccccc2)CN1C(=O)CN [Compound 72, (2S,4R) 1-(2-aminoacetyl)-4-benzamido-N-isobutylpyrrolidine-2-carboxamide] |  | 88% | > 30 min |  |
| NCC(=O)N1C[C@H](NC(=O)c2ccccc2)C[C@H]1C(=O)NC1CCC1 [Compound 73, (2S,4R) 1-(2-aminoacetyl)-4-benzamido-N-cyclobutylpyrrolidine-2-carboxamide] |  | 95% | > 30 min |  |
| CC(=O)NCC(=O)N1C[C@H](NC(=O)c2ccccc2)C[C@H]1C(=O)O [Compound 80, (2S,4R) 1-(2-acetamidoacetyl)-4-benzamidopyrrolidine-2-carboxylic acid] | 111.5 s | 100% | > 30 min |  |
| CNCC(=O)N1C[C@H](NC(=O)c2ccccc2)C[C@H]1C(=O)O [Compound 81, (2S,4R) 4-benzamido-1-(2-(methylamino)acetyl)-pyrrolidine-2-carboxylic acid] | 123.2 s | 100% | > 30 min |  |
| O=C(N[C@@H]1C[C@@H](C(=O)O)N(C(=O)CNC(=O)C(F)(F)F)C1)c1ccccc1 [Compound 82, (2S,4R) 4-benzamido-1-(2-(2,2,2-trifluoroacetamido)acetyl)pyrrolidine-2-carboxylic acid] | 113.8 s | 34% | > 30 min |  |
| CC(C)(C)OC(=O)NCC(=O)N1C[C@H](NC(=O)c2ccccc2)C[C@H]1C(=O)O [Compound 83, (2S,4R) 4-benzamido-1-(2-(tert-butoxycarbonylamino)acetyl) pyrrolidine-2-carboxylic acid] | 110.9 s | 100% | > 30 min |  |
| CN(C)CC(=O)N1C[C@H](NC(=O)c2ccccc2)C[C@H]1C(=O)O [Compound 84, (2S,4R) 4-benzamido-1-(2-(dimethylamino)acetyl)pyrrolidine-2-carboxylic acid] | 108.8 s | 100% | > 30 min |  |
| O=CNCC(=O)N1C[C@H](NC(=O)c2ccccc2)C[C@H]1C(=O)O [Compound 85, (2S,4R) 4-benzamido-1-(2-formamidoacetyl)pyrrolidine-2-carboxylic acid] |  | 107% |  |  |
